Patent publication US9073961B2, “Substitution derivatives of N6 -benzyladenosine-5′-monophosphate, methods of preparation thereof, use thereof as medicaments, and therapeutic preparations containing these compounds” (UNIVERZITA PALACKEHO V OLOMOUCI, priority 2010, dated 2015)

Legend:
p21^WAF-1 = test: Induction of p21WAF-1 expression in MCF-7 cells (immunoblot); assay type: cell-based
Protocol: MCF-7 cells cultured at 37° C. in 5% CO2 atmosphere in DMEM medium supplemented with 10% foetal calf serum were treated with compound 28 concentration ranges of 0-100 μM. Compound 28 was added into the medium from the 100 mM stock solution in DMSO. Cells were harvested 12 hours after incubation with compound 28, centrifuged (1000 rpm, 4° C., 5 min), washed twice by ice-cold PBS and re-centrifuged. These washed cells were then lysed by 1×CSB (loading buffer for SDS-PAGE, i.e. electrophoresis of proteins in polyacrylamide gel containing SDS). Cell lysate proteins were separated by SDS-PAGE and transferred onto a nitrocelulose (NC) membrane. NC membrane was blocked by 5% skimmed milk, 0.1% Tween 20 in PBS. Protein level of p21^WAF-1 and actin (as a loaded protein volume control) were detected immunochemically using commercially available specific monoclonal antibodies anti-p21^WAF-1 (Ab-1, Calbiochem) and anti-Actin (Clone AC-40, Sigma-Aldrich). The primary antibodies bind to target proteins were detected using rabbit secondary peroxidase-labeled antibody (RAM-Px, DAKO), followed by chemiluminiscence (ECL, Amersham-Pharmacia).
MCF-7 cells were incubated in the presence of 1 μmol of compound 28. In various time intervals from the moment of administration of 28 the cells were harvested and lyzed. […]

[1] = test system: HL-60 (promyelocytic leukemia); test: Calcein AM cytotoxicity assay, HL60; assay type: cell-based, human; settings: 72 hours incubation
Procedure, shortened: (§1)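 24 h preincubation, 37 °C/5% CO2; cpd added at t0, six 3-fold dilns, max 166.7 μM, triplicate; 72 h exposure; Calcein AM 1 μg/ml final, 1 h; fluorescence read. GI50 from dose-response (50% drop in esterase activity).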

[2] = test system: G-361 (human malignant melanoma); test: Calcein AM cytotoxicity assay, G-361; assay type: cell-based; settings: 72 hours incubation
Excerpt: Because toxic compounds negatively influence metabolic processes in cells, many standard cytotoxicity assays are based on measurement of metabolisation rate of various artificial substrates. Resulting product is then quantified e.g. by means of spectrometry. The assays can be easily modified for use in 96-well plates. For evaluation of cytotoxic effect of the novel substituted 9-substituted cytokinin derivatives of this invention, a microtiter assay based on quantification of metabolisation of Calcein AM was used. The assay is widely used in drug screening programs and in chemosensitivity testing. In the living cells, Calcein AM is enzymatically hydrolysed and accumulation of resulting calcein is manifested by green fluorescence.
In the routine screening the following cell lines have been used: CEM (T-lymphoblastoid leukemia), HL-60 (promyelocytic leukemia), K-562 (human erythroleukemia), MCF-7 (breast carcinoma), HOS (human osteogenic sarcoma), and G-361 (human malignant melanoma). Normal human fibroblasts BJ were used as a control for routine screening of the compounds. The cells were kept in Nunc/Corning 80 cm^2 plastic bottles and grown in cell culture medium (DMEM containing 5 g/l glucose, 2 mM glutamine, 100 U/ml penicilline, 100 μg/ml streptomycine, 10% fetal bovine serum and sodium hydrogencarbonate), the compounds were prepared according to the procedure of the present invention.
The cell suspensions were prepared and diluted according to the particular cell type and the expected target cell density (2.500-30.000 cells per well based on cell growth characteristics) and pippetted (80 μl) into 96-well plates. Inoculates were allowed a pre-incubation period of 24 hours at 37° C. and 5% CO2 for stabilisation. Tested compound was added in total volume of 20 μl of water at time zero. Usually, test compound was evaluated at six 3-fold dilutions. In routine testing, the highest concentration tested was 166.7 μM. All drug concentrations were tested in triplicates. Incubations of cells with the test compounds lasted for 72 hours at 37° C., in 5% CO2 atmosphere and 100% humidity. At the end of incubation period Calcein AM in PBS was added into final concentration of 1 μg/ml. After another 1 hour of incubation fluorescence (FD) was measured with the Labsystem FIA Reader Fluoroscan Ascent (Microsystems). Tumor cell survival (TCS) was estimated using the following equation: […]=(FDdrug exposed well/FDcontrol well)×100%. The GI50 value, the drug concentration causing 50% reduction of esterase activity, was calculated from the obtained dose response curves (FIG. 1).
Cytoxicity of novel compounds was tested on panel of cell lines of different histogenetic and species origin (Table 3). […] The effective novel derivatives killed tumour cells in concentrations close to 0.1-50 μM.

MCF-7 (breast carcinoma) = test: Calcein AM cytotoxicity assay, MCF7; assay type: cell-based; settings: 72 hours incubation
Procedure, shortened: as §1

[3] = test system: Normal human fibroblasts BJ; test: Calcein AM cytotoxicity assay, BJ; assay type: cell-based; settings: 72 hours incubation
Procedure, shortened: as §1

[4] = test system: K-562 (human erythroleukemia); test: Calcein AM cytotoxicity assay, K-562; assay type: cell-based; settings: 72 hours incubation
Procedure, shortened: as §1

Human lymphocytes = test: Immunosuppressive activity, 3H-thymidine incorporation in concanavalin A activated lymphocytes; assay type: cell-based; settings: 72 hours, [3H]-TdR incorporation, read-out: Human lymphocytes ED50
Excerpt: One of the most important parameters of specific cellular immunity is the proliferative response of lymphocytes to antigens or polyclonal mitogens. The majority of normal mammalian peripheral lymphocytes comprise resting cells. Antigens or nonspecific polyclonal mitogens have the capacity to activate lymphoid cells and this is accompanied by dramatic changes of intracellular metabolism (mitochondrial activity, protein synthesis, nucleic acids synthesis, formation of blastic cells and cellular proliferation). […] Variety of in vitro assays was developed to measure proliferative response of lymphocytes. The most commonly used is ^3H-thymidine incorporation method.
During cell proliferation, DNA has to be replicated before the cell is divided into two daughter cells. This close association between cell doublings and DNA synthesis is very attractive for assessing cell proliferation. If labelled DNA precursors are added to the cell culture, cells that are about to divide incorporate the labelled nucleotide into their DNA. Traditionally, those assays usually involve the use of radiolabelled nucleosides, particularly tritiated thymidine ([^3H]-TdR). The amount of [^3H]-TdR incorporated into the cellular DNA is quantified by liquid scintillation counting.
Human heparinized peripheral blood was obtained from healthy volunteers by cubital vein punction. The blood was diluted in PBS (1:3) and mononuclear cells were separated by centrifugation in Ficoll-Hypaque density gradient (Pharmacia, 1.077 g/ml) at 2200 rpm for 30 minutes. Following centrifugation, lymphocytes were washed in PBS and resuspended in cell culture medium (RMPI 1640, 2 mM glutamine, 100 U/ml penicillin, 100 μg/ml streptomycin, 10% fetal calf serum and sodium bicarbonate).
The cells were diluted at target density of 1.100.000 cells/ml and were added by pipette (180 μl) into 96-well microtiter plates. Four-fold dilutions of the intended test concentration were added at time zero in 20 μl aliquots to the microtiter plate wells. Usually, test compound was evaluated at six 4-fold dilutions. In routine testing, the highest well concentration was 266.7 μM. All drug concentrations were examined in duplicates. All wells with exception of unstimulated controls were activated with 50 μl of concanavalin A (25 μg/ml). Incubations of cells with test compounds lasted for 72 hours at 37° C., in 5% CO2 atmosphere and 100% humidity. At the end of incubation period, the cells were assayed by using the [^3H]-TdR:
Cell cultures were incubated with 0.5 μCi (20 μl of stock solution 500 μCi/ml) per well for 6 hours at 37° C. and 5% CO2. The automated cell harvester was used to lyse cells in water and adsorb the DNA onto glass-fiber filters in the format of microtiter plate. The DNA incorporated [^3H]-TdR was retained on the filter while unincorporated material passes through. The filters were dried at room temperature overnight, sealed into a sample bag with 10-12 ml of scintillant. The amount of [^3H]-TdR present in each filter (in cpm) was determined by scintillation counting in a Betaplate liquid scintillation counter. The effective dose of immunosuppressant (ED) was calculated using the following equation: ED=(CCPMdrug exposed well/mean CCPMcontrol wells)×100%. The ED50 value, the drug concentration inhibiting proliferation of 50% of lymphocytes, was calculated from the obtained dose response curves.
To evaluate immunosuppressive activity of substituted adenines, their ability to inhibit polyclonal mitogen induced proliferation of normal human lymphocytes was analyzed (Table 4). […] Effective immunosuppressive dose of new derivatives under in vitro conditions was close to 10-40 μM.

[5] = test system: CEM (T-lymphoblastoid leukemia); test: Calcein AM cytotoxicity assay, CEM; assay type: cell-based; settings: 72 hours incubation, Calcein AM
Procedure, shortened: as §1

[6] = test system: HOS (human osteogenic sarcoma); test: Calcein AM cytotoxicity assay, HOS; assay type: cell-based; settings: 72 hours incubation
Procedure, shortened: as §1

EC50 (Human lymphocytes): 1.2 µM
SMILES: COc1cccc(CNc2ncnc3c2ncn3[C@@H]2O[C@H](COP(=O)(O)O)[C@@H](O)[C@H]2O)c1O [Compound 28, 6-(2-hydroxy-3-methoxybenzylamino)purine riboside-5′-monophosphate]
time of effective induction of p21^WAF-1 after addition (p21^WAF-1; 1 μmol concentration): 6 to 24 h
p21^WAF-1 protein induction in relation to concentration (p21^WAF-1; 12 hours, 0-100 μM tested, effective in range of units imol per liter): efficient p21^WAF-1 protein induction is achieved
GI50 [1]: 0.5 µM
GI50 [2]: 27.9 µM
GI50 (MCF-7 (breast carcinoma)): 30.4 µM
GI50 [3]: 69.7 µM
GI50 [4]: 2.1 µM
GI50 [5]: 0.3 µM
GI50 [6]: 24.1 µM
